# Values joined by “and” are separate entries in the source; they are usually repeats but may differ in a detail not shown here. Identical values can stand only once.
# Legend:
# IMP-BL21 (IMP-4^+) = assay: microbe, parasite or virus in culture; type: cell-based, E. coli; conditions: for MBC of MER in combination with compound at 32 µg mL^-1 / MIC of MER in combination with compound at 32 µg mL^-1 / FICI: IMP-BL21; for FICI: MER + compound, 256 µg mL^-1 set as MIC of Bi(III)
# Method: (§1) MIC values were determined by standard broth micro-dilution method (Clinical and Laboratory Standards Institute (CLSI) M100-S20, 2010)[64]. Briefly, bacterial cells were cultured in LB broth overnight at 37 °C at 250 rpm and the OD was measured at 600 nm (OD600). The bacterial density was adjusted to about 1 × 10^6 CFU mL^−1 and checked by CFU counting on agar plates afterwards. Tested antibiotics or Bi(III) compounds were added triplicately into individual wells of flat-bottomed 96-well plates and performed 2-fold serial dilution, followed by addition of prepared bacterial inocula. The plate was then incubated at 37 °C for overnight. […] The MIC was determined as the lowest concentration of a drug that could inhibit the growth of microorganism by both visual reading and OD reading at 600 nm using a microtiter plate reader.
# (§2) Resulting growth (or lack of growth) was examined after overnight culturing and the lowest concentration that inhibits 99.9% of the original culture was taken as MBC.
# (§3) Other procedures were kept strictly the same. […] Synergism was defined when FICI ≤ 0.5, indifference was defined when FICI > 0.5 and < 4, and antagonism was defined when FICI≥4[65]. […] All of the determinations were performed at least in triplicate on different days.
# NDM-HK (NDM-1^+) = assay: microbe, parasite or virus in culture; type: cell-based, E. coli; conditions: for MBC of Bi(III) compound/inhibitor alone / MBC of MER in combination with compound at 32 µg mL^-1 / MIC of Bi(III) compound/inhibitor alone / MIC of MER in combination with compound at 32 µg mL^-1 / FICI: NDM-HK; for FICI: MER + compound, 256 µg mL^-1 set as MIC of Bi(III), 128 for Bi(NAC)3
# Method: as §1, §2, §3
# VIM-BL21 (VIM-2^+) = assay: microbe, parasite or virus in culture; type: cell-based, E. coli; conditions: for FICI: MER + compound, 256 µg mL^-1 set as MIC of Bi(III)
# Method: as §1, §2, §3
# [1] = test system: MBL-positive bacterial strains; conditions: with MER, different MBL-positive strains
# Method: as §1, §2, §3
# IMP-4 = assay: IC50 enzyme inhibition assay; type: biochemical; conditions: IMP-4 50 nM, 1 h preincubation, MER substrate
# Method: (§4) Freshly prepared 50 nM of Zn2-NDM-1, Zn2-VIM-2, or Zn2-IMP-4 in 50 mM HEPES/Na pH 7.0, 100 mM NaCl were first incubated with various concentrations of CBS for 1 h at 25 °C, then mixed with equal volume of 0.2 mM MER. The assay was performed in a 1 cm quartz cuvette using the kinetic mode on a Varian Cary50 UV-visible spectrophotometer at 25 °C. The decrease in absorbance at 300 nm due to ring-opening of MER was monitored every second for a duration of 10 min until the reaction was completed. The initial rates were extracted and calculated from each reaction curves for fitting IC50 curves.
# NDM-HK [2] = assay: Time kill assay; type: cell-based, E. coli; conditions: MER 24 µg mL^−1 + Bi(NAC)3 32 µg mL^−1
# Method: Time kill assay was used to further explore the synergy between MER and Bi(III) compounds. In a typical assay, NDM-HK was cultured overnight and diluted 1:250 into LB broth at 37 °C for 3 h to reach log phase. The initial bacterial density was adjusted to ~10^7 CFU mL^−1 and then exposed to MER, Bi(III) compounds either alone or in combination. LB broth with no drugs served as a control. Aliquots of bacterial suspension were withdrawn at different time intervals (0, 1, 2, 4, 6, 8, and 24 h) for inspection of bacterial viability by agar plating. The concentrations of the drugs used in the test are 24 µg mL^−1 for MER, 64 µg mL^−1 for CBS, and 32 µg mL^−1 for Bi(NAC)3. Data from three independent experiments were averaged and plotted as log10 CFU mL^−1 vs. time (h) for each time point over 24 h. All assays were triplicated and performed three times on different days.
# NDM-1 [3] = molecular target: T1, NDM-1 (Klebsiella pneumoniae, UniProt C7C422); type: cell-based; design: endogenous in cells; host or cells: E. coli clinical isolate NDM-HK; conditions: NDM-HK cultured with 100 µM compound; control 50.1 °C
# Method: The cellular thermal shift assay was performed according to a standard method. Clinical isolate of NDM-1-positive E. coli (NDM-HK) was cultured overnight in the absence or presence of 100 µM Bi(III) compounds, i.e., CBS, Bi(NAC)3, Bi(NIT)3. The bacterial pellets were harvested and washed with PBS for 4 times. The cell suspensions were aliquoted into PCR tubes and heat treatment was performed at the designated temperature ranging from 40 °C to 70 °C for 3 min in a 96-well thermal cycler. The tubes were cooled immediately at room temperature for another 3 min after heating and the heating procedures were repeated for three cycles. For the cell lysis, the samples were frozen–thawed for two cycles in liquid nitrogen and thermal cycler set at 25 °C. The samples were vortexed gently after each cycle and were centrifuged at 20,000 × g to obtain the supernatant when the second cycle was finished. All the samples were subjected to western blot analysis for detection and quantification of NDM-1 content as described above.
# Target sequence in this assay (C7C422 29-270 limits assumed): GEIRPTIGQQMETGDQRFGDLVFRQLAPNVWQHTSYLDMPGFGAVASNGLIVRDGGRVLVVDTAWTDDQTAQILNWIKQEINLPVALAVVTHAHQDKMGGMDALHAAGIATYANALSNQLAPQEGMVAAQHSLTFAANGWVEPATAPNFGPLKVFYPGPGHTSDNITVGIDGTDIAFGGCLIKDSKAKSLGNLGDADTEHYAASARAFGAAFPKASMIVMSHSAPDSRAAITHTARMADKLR
# [4] = test system: NDM-C. freundii (NDM-1^+); assay: Microdilution MIC/MBC and checkerboard assay; type: cell-based, Citrobacter freundii; conditions: for MBC of MER in combination with compound at 32 µg mL^-1 / MIC of MER in combination with compound at 32 µg mL^-1: NDM-C. freundii (NDM-CF); for MBC of Bi(III) compound alone / MIC of Bi(III) compound alone / FICI: NDM-CF; for FICI: MER + compound, 256 µg mL^-1 set as MIC of Bi(III)
# Method: as §1, §2, §3
# NDM-1 [5] = molecular target: T1, NDM-1; type: biochemical; conditions: NDM-1 50 nM, 1 h preincubation, MER substrate
# Method: as §4
# Target sequence in this assay (C7C422 29-270, looked up, species assumed): as the sequence (C7C422 29-270 limits assumed) above
# VIM-2 = VIM-2 (Escherichia coli, UniProt Q5U7L7); type: biochemical; conditions: VIM-2 50 nM, 1 h preincubation, MER substrate
# Method: as §4
# NDM-HK [6] = assay: Resistance study: MPC and mutation frequency; type: cell-based, E. coli; conditions: ≥64 µg mL^−1 Bi(NAC)3
# [7] = test system: NDM-K. pneumonia (NDM-1^+); assay: Microdilution MIC/MBC and checkerboard assay; type: cell-based, Klebsiella pneumonia; conditions: for MBC of MER in combination with compound at 32 µg mL^-1 / MIC of MER in combination with compound at 32 µg mL^-1: NDM-K. pneumonia (NDM-KP); for MBC of Bi(III) compound alone / MIC of Bi(III) compound alone / FICI: NDM-KP; for FICI: MER + compound, 256 µg mL^-1 set as MIC of Bi(III)
# Method: as §1, §2, §3
# NDM-1 [8] = molecular target: T1, NDM-1; type: biochemical; conditions: MER substrate 10 to 150 µM
# Target sequence in this assay (C7C422 29-270, looked up, species assumed): as the sequence (C7C422 29-270 limits assumed) above
# Method: NDM-1 (50 nM) was incubated with Bi(NIT)3 (0.5, 1.0, and 1.5 µM) for 1 h at 25 °C with gentle shaking. The assay was performed in a 96-well microplate reader at 298 K. The final assay buffer contains 50 mM HEPES at pH 7.0, 100 mM NaCl, with MER as the substrate ranging from 10 to 150 µM. Control experiment was also performed in the absence of inhibitors under the same conditions. The Km and Vmax for both the uninhibited and inhibited reactions were obtained by fitting the data into the double reciprocal Lineweaver–Burk plots.
# NDM-HK [9] = conditions: for growth inhibition based on optical density (OD) reading: metal compound 10, 50, 200 µM with MER at ½MIC (8 μg mL^−1), 24 h
# Method: Metal salts used for the screening involved bismuth nitrate (Bi(III)), gallium nitrate (Ga(III)), sodium stibogluconate (Sb(V)), chromium chloride (Cr(III)), cobalt chloride (Co(II)), nickel chloride (Ni(II)), ruthenium chloride (Ru(II)), and copper sulfate (Cu(II)). Briefly, different concentrations (10, 50, and 200 μM) of metal compounds were added to LB medium containing 8 μg mL^−1 of MER in 96-well plates. About 2 × 10^6 CFU mL^−1 logarithmic cultures of NDM-HK were added to each well of the plates and co-incubated for overnight. The growth inhibition of bacteria was monitored by OD reading at 600 nm and serial dilution in LB agar plate. Wells with no antibiotics or metal compounds served as growth controls, and wells with no bacteria added served as background controls. Each test was performed in triplicate. The inhibition was calculated as [1−(ODsample−ODbackground)/(ODcontrol−ODbackground)] ×100%. CFU was counting by 10-fold serial dilution in PBS and 10 μL was spotted in LB agar plate.
Structure (SMILES),MBC of MER in combination with compound at 32 µg mL^-1 (IMP-BL21 (IMP-4^+)),MIC of MER in combination with compound at 32 µg mL^-1 (IMP-BL21 (IMP-4^+)),FICI (IMP-BL21 (IMP-4^+)),MBC of Bi(III) compound/inhibitor alone (NDM-HK (NDM-1^+)) [µg/mL],MBC of MER in combination with compound at 32 µg mL^-1 (NDM-HK (NDM-1^+)) [µg/mL],MIC of Bi(III) compound/inhibitor alone (NDM-HK (NDM-1^+)),MIC of MER in combination with compound at 32 µg mL^-1 (NDM-HK (NDM-1^+)) [µg/mL],MBC of MER in combination with compound at 32 µg mL^-1 (VIM-BL21 (VIM-2^+); VIM-BL21) [µg/mL],MIC of MER in combination with compound at 32 µg mL^-1 (VIM-BL21 (VIM-2^+); VIM-BL21) [µg/mL],FICI (VIM-BL21 (VIM-2^+); VIM-BL21),IC50 (IMP-4) [nM],"NDM-1 melting temperature, treated group (NDM-1 [3]) [°C]",MBC of MER in combination with compound at 32 µg mL^-1 [4],MIC of MER in combination with compound at 32 µg mL^-1 [4],MBC of Bi(III) compound alone [4] [µg/mL],MIC of Bi(III) compound alone [4] [µg/mL],IC50 (NDM-1 [5]) [nM],IC50 (VIM-2) [nM],MBC of MER in combination with compound at 32 µg mL^-1 [7],MIC of MER in combination with compound at 32 µg mL^-1 [7],further results
CC(=O)N[C@@H](C[S][Bi]([S]C[C@H](NC(C)=O)C(=O)O)[S]C[C@H](NC(C)=O)C(=O)O)C(=O)O [Bi(NAC)3],2 µg mL^-1 and 2/2 µg mL^-1,2 µg mL^-1 and 2/2 µg mL^-1,0.125,> 256,0.5,128 µg/mL,0.5,1,0.5,0.063,2800 ± 790,47.7,0.5 µg mL^-1 and 0.5/0.5 µg mL^-1,0.5 µg mL^-1 and 0.5/0.5 µg mL^-1,> 256,256,1650 ± 600,2650 ± 570,2 µg/mL,1 µg/mL,decrease in the MIC of MER (IMP-BL21 (IMP-4^+); IMP-4-positive E. coli): 16 fold; decrease in the MIC of MER (NDM-HK (NDM-1^+); NDM-1-positive E. coli): 32 fold; decrease in the MIC of MER (VIM-BL21 (VIM-2^+); VIM-2-positive E. coli): 64 fold; FICI values [1]: 0.063 to 0.188; time to eradicate the bacterium completely (NDM-HK [2]): ≤ 6 h; FICI [4]: 0.188; MER MPC with Bi(NAC)3 (NDM-HK [6]): 2 fold MIC; MBC of Bi(III) compound alone [7]: > 256 µg/mL; MIC of Bi(III) compound alone [7]: 256 µg/mL; FICI [7]: 0.188
"O=[N+]([O-])[O-].O=[N+]([O-])[O-].O=[N+]([O-])[O-].[Bi+3] [Bi(NIT)3, bismuth nitrate]",8 µg/mL,4 µg/mL,0.250,> 256,4,> 256 µg/mL,2,2,1,0.063,990 ± 190,48.1,4 µg/mL,2 µg/mL,> 256,> 256,700 ± 130,1200 ± 130,1 µg mL^-1 and 1/1 µg mL^-1,1 µg mL^-1 and 1/1 µg mL^-1,FICI (NDM-HK (NDM-1^+)): 0.266; inhibition mode (Lineweaver Burk plot) (NDM-1 [8]): either a non-competitive or an irreversible inhibition mode; colony-forming unit (CFU) counting on agar plate after serial dilutions (NDM-HK [9]; MER 8 μg mL-1 + metal compound 10 μM): no colony was observed; growth inhibition based on optical density (OD) reading (NDM-HK [9]): > 90%; FICI [4]: 0.375; MBC of Bi(III) compound alone [7]: > 256 µg/mL; MIC of Bi(III) compound alone [7]: > 256 µg/mL; FICI [7]: 0.125
CC(C)([S][Bi+][S]C(C)(C)C(N)C(=O)O)C(N)C(=O)O (stereo not shown) [Bi(PCM)2],2 µg/mL,1 µg/mL,–,> 256,2,> 256 µg/mL,2,2,1,0.093,1000 ± 370,–,2/2 µg mL^-1,2/2 µg mL^-1,–,–,2800 ± 110,3710 ± 1190,8 µg/mL,2 µg/mL,FICI (NDM-HK (NDM-1^+)): 0.313; MBC of Bi(III) compound alone (VIM-BL21 (VIM-2^+); VIM-BL21): > 256 µg/mL; MIC of Bi(III) compound alone (VIM-BL21 (VIM-2^+); VIM-BL21): > 256 µg/mL
O=[N+]([O-])[O-].O=[N+]([O-])[O-].O=[N+]([O-])[O-].[Ga+3] [gallium nitrate],–,–,–,–,–,greater than 256 µg mL^-1,–,–,–,–,–,–,–,–,–,–,–,–,–,–,growth inhibition based on optical density (OD) reading (NDM-HK [9]): > 90%
